biological target: T1, human thrombopoietin receptor (c-mpl) (Homo sapiens, UniProt P40238); assay: Stimulation of proliferation of thrombopoietin-dependent cell line UT7/EPO-mpl (WST-8); assay type: cell-based; conditions: human leukemic cell line UT-7/EPO-mpl, 4 days incubation, WST-8, relative to 10 ng/mL TPO; read-out: EC50 (concentration that yields a growth rate corresponding to 50% of the growth observed in the presence of 10 ng/mL TPO) (converted)
T1 construct: expressed in transfected cells
T1 sequence (P40238 26-635): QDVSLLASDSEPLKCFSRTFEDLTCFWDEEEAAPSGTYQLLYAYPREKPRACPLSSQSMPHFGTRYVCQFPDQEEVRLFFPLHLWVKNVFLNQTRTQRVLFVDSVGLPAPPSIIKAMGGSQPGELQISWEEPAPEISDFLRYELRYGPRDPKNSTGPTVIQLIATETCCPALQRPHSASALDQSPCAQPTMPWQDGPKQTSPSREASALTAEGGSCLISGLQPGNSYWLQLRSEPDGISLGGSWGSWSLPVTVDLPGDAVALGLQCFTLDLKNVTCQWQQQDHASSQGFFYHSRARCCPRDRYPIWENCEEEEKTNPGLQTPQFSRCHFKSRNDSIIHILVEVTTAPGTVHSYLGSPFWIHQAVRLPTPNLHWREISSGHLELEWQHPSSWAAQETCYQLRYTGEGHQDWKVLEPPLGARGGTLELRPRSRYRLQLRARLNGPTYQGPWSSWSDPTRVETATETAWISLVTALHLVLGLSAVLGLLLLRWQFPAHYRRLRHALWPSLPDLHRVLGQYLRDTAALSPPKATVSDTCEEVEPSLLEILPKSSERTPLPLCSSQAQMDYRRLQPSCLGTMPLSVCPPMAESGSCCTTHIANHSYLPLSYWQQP
Method: The responses of thrombopoietin receptor to the compounds of the present invention prepared in the Synthetic Examples were assayed using a human leukemic cell line, UT7/EPO-mpl.
UT7/EPO-mpl is a stable transformed cell line obtained by introducing into human leukemic cell line UT7/EPO a vector that induces expression of human thrombopoietin receptor (c-mpl) under control of cytomegalovirus immediate-early promoter by the method of Takatoku et al. (J. Biol. Chem., 272:7259-7263 (1997)). […] These two cell lines were subcultured in IMDM (GIBCO) containing 10% fetal bovine serum (Thermo Electron or BioWest) using a CO2 incubator (5% CO2, 37° C.).
The subcultured cells described above were washed twice with PBS and suspended in IMDM containing 10% fetal bovine serum at a cell density of 6×10^4 cells/ml. The cell suspension was transferred to a 96-well tissue culture plate (CORNING) in 100-μl aliquots. Then either thrombopoietin (Pepro Tech EC) or the compounds of the Synthetic Examples dissolved in dimethyl sulfoxide were diluted 83-fold with IMDM containing 10% fetal bovine serum and added to the aforementioned cell suspension in 20-μl aliquots. The cell suspension was incubated in a CO2 incubator (5% CO2, 37° C.) for 4 days. Cell proliferation was assayed using WST-8 reagent (Kishida Chemical Co., Ltd.) according to instructions by the manufacturer. A 10-μl aliquot of 5 mM WST-8 reagent solution was added to each well of the tissue culture plate, and the plate was incubated at 37° C. for 4 hours. The formazan pigment generated was detected by measuring the absorbance at 450 nm with a 96-well microplate reader (Nihon Molecular Devices, Spectramax 190).
The concentration of each compound that yields a growth rate corresponding to 50% of the growth of human leukemic cell line UT-7/EPO-mpl observed in the presence of 10 ng/mL TPO (EC50) in the test on the compounds of the Synthetic Examples in Assay Example 1 are shown in Table 16.

Going from `CC1=NN(c2ccc(C)c(C)c2)C(=O)/C1=C(/C)NNC(=O)c1ccc(C(=O)NCc2ccncc2)s1` [Example 2] to `CC1=NN(c2ccc(C)c(C)c2)C(=O)/C1=C(/C)NNC(=O)c1ccc(C(=O)NCc2cccnc2)s1` [Example 8], the EC50 falls from 1.63 nM to 0.676 nM (2.4-fold).

`CC1=NN(c2ccc(C)c(C)c2)C(=O)/C1=C(/C)NNC(=O)c1ccc(C(=O)N2CC(O)C(O)C2)s1` (stereo not shown) [Example 3] and `CC1=NN(c2ccc(Cl)c(Cl)c2)C(=O)/C1=C(/C)NNC(=O)c1ccc(C(=O)N2CC(O)C(O)C2)s1` (stereo not shown) [Example 39] are within 1.5-fold of each other in EC50: 5.63 nM for the first, 3.9 nM for the second.

`CC1=NN(c2ccc(C)c(C)c2)C(=O)/C1=C(/C)NNC(=O)c1ccc(C(=O)N2CCCC2)s1` [Example 4] and `CC1=NN(c2ccc(C(C)(C)C)cc2)C(=O)/C1=C(/C)NNC(=O)c1ccc(C(=O)N2CCCC2)s1` [Example 15] are within 1.5-fold of each other in EC50: 7.52 nM for the first, 5.27 nM for the second.

`CC1=NN(c2ccc(C)c(C)c2)C(=O)/C1=C(/C)NNC(=O)c1ccc(C(=O)NN(C)C)s1` [Example 5] and `CNC(=O)c1ccc(C(=O)NN/C(C)=C2\C(=O)N(c3ccc(C)c(C)c3)N=C2C)s1` [Example 10] are within 1.5-fold of each other in EC50: 6.16 nM for the first, 5.17 nM for the second.

`CC1=NN(c2ccc(C)c(C)c2)C(=O)/C1=C(/C)NNC(=O)c1ccc(C(=O)NCc2ccccn2)s1` [Example 7] and `CC1=NN(c2ccc(Cl)c(Cl)c2)C(=O)/C1=C(/C)NNC(=O)c1ccc(C(=O)NCc2ccccn2)s1` [Example 42] are within 1.5-fold of each other in EC50: 3.58 nM for the first, 5.34 nM for the second.

First: CC1=NN(c2ccc(C)c(C)c2)C(=O)/C1=C(/C)NNC(=O)c1ccc(C(=O)NCCC(=O)O)s1 [Example 9]
Second: CC1=NN(c2ccc(C(C)(C)C)cc2)C(=O)/C1=C(/C)NNC(=O)c1ccc(C(=O)NCCC(=O)O)s1 [Example 24]
The EC50 of the first is 1.5-fold higher: 8.89 nM for the first, 5.86 nM for the second.

First: CC1=NN(c2ccc(C(C)(C)C)cc2)C(=O)/C1=C(/C)NNC(=O)c1ccc(C(=O)NC(C)C)s1 [Example 11]
Second: CNC(=O)c1ccc(C(=O)NN/C(C)=C2\C(=O)N(c3ccc(C(C)(C)C)cc3)N=C2C)s1 [Example 25]
The EC50 of the first is 1.8-fold higher: 1.16 nM for the first, 0.661 nM for the second.

`CC1=NN(c2ccc(C(C)(C)C)cc2)C(=O)/C1=C(/C)NNC(=O)c1ccc(C(=O)NCc2ccncc2)s1` [Example 12] and `CC1=NN(c2ccc(C(C)(C)C)cc2)C(=O)/C1=C(/C)NNC(=O)c1ccc(C(=O)NCc2cccnc2)s1` [Example 20] are the same in EC50: 0.528 nM for the first, 0.528 nM for the second.

First: CC1=NN(c2ccc(C(C)(C)C)cc2)C(=O)/C1=C(/C)NNC(=O)c1ccc(C(=O)N2CC(O)C(O)C2)s1 (stereo not shown) [Example 13]
Second: CC1=NN(c2ccc(C(F)(F)F)cc2)C(=O)/C1=C(/C)NNC(=O)c1ccc(C(=O)N2CC(O)C(O)C2)s1 (stereo not shown) [Example 30]
The EC50 of the first is 5-fold lower: 1.01 nM for the first, 5.02 nM for the second.

`CCN(CC)C(=O)c1ccc(C(=O)NN/C(C)=C2\C(=O)N(c3ccc(C(C)(C)C)cc3)N=C2C)s1` [Example 14] and `CCN(CC)C(=O)c1ccc(C(=O)NN/C(C)=C2\C(=O)N(c3ccc(C(F)(F)F)cc3)N=C2C)s1` [Example 31] are within 1.5-fold of each other in EC50: 11.7 nM for the first, 8.28 nM for the second.

`CC1=NN(c2ccc(C(C)(C)C)cc2)C(=O)/C1=C(/C)NNC(=O)c1ccc(C(=O)NN(C)C)s1` [Example 16] and `CC1=NN(c2ccc(C(F)(F)F)cc2)C(=O)/C1=C(/C)NNC(=O)c1ccc(C(=O)NN(C)C)s1` [Example 33] are within 1.5-fold of each other in EC50: 3.94 nM for the first, 4.45 nM for the second.

`CC1=NN(c2ccc(C(C)(C)C)cc2)C(=O)/C1=C(/C)NNC(=O)c1ccc(C(=O)N2CCC(N3CCCC3)CC2)s1` [Example 17] and `CC1=NN(c2ccc(C(F)(F)F)cc2)C(=O)/C1=C(/C)NNC(=O)c1ccc(C(=O)N2CCC(N3CCCC3)CC2)s1` [Example 34] are within 1.5-fold of each other in EC50: 3.99 nM for the first, 4.25 nM for the second.

`CC1=NN(c2ccc(C(C)(C)C)cc2)C(=O)/C1=C(/C)NNC(=O)c1ccc(C(=O)N2CCC(N(C)C)C2)s1` (stereo not shown) [Example 18] and `CC1=NN(c2ccc(C(F)(F)F)cc2)C(=O)/C1=C(/C)NNC(=O)c1ccc(C(=O)N2CCC(N(C)C)C2)s1` (stereo not shown) [Example 35] are within 1.5-fold of each other in EC50: 5.03 nM for the first, 6.93 nM for the second.

First: CC1=NN(c2ccc(C(C)(C)C)cc2)C(=O)/C1=C(/C)NNC(=O)c1ccc(C(=O)NCc2ccccn2)s1 [Example 19]
Second: CCCNC(=O)c1ccc(C(=O)NN/C(C)=C2\C(=O)N(c3ccc(C(C)(C)C)cc3)N=C2C)s1 [Example 27]
The EC50 of the first is 1.6-fold higher: 2.64 nM for the first, 1.6 nM for the second.

Compared with `CC1=NN(c2ccc(C(C)(C)C)cc2)C(=O)/C1=C(/C)NNC(=O)c1ccc(C(=O)NN2CCOCC2)s1` [Example 21], `CC1=NN(c2ccc(C(C)(C)C)cc2)C(=O)/C1=C(/C)NNC(=O)c1ccc(C(=O)NCC(=O)O)s1` [Example 23] is 5.2-fold higher in EC50: 1.2 nM for the first, 6.23 nM for the second.

Compared with `COC1CN(C(=O)c2ccc(C(=O)NN/C(C)=C3\C(=O)N(c4ccc(C(C)(C)C)cc4)N=C3C)s2)CC1OC` (stereo not shown) [Example 22], `COC1CN(C(=O)c2ccc(C(=O)NN/C(C)=C3\C(=O)N(c4ccc(Cl)c(Cl)c4)N=C3C)s2)CC1OC` (stereo not shown) [Example 44] is 2-fold higher in EC50: 5.78 nM for the first, 11.3 nM for the second.

`COCCNC(=O)c1ccc(C(=O)NN/C(C)=C2\C(=O)N(c3ccc(C(C)(C)C)cc3)N=C2C)s1` [Example 26] and `CC1=NN(c2ccc(C(F)(F)F)cc2)C(=O)/C1=C(/C)NNC(=O)c1ccc(C(=O)NC(C)C)s1` [Example 28] are within 1.5-fold of each other in EC50: 1.23 nM for the first, 0.871 nM for the second.

Going from `CC1=NN(c2ccc(C(F)(F)F)cc2)C(=O)/C1=C(/C)NNC(=O)c1ccc(C(=O)NCc2ccncc2)s1` [Example 29] to `CC1=NN(c2ccc(Cl)c(Cl)c2)C(=O)/C1=C(/C)NNC(=O)c1ccc(C(=O)NCc2ccncc2)s1` [Example 38], the EC50 rises from 1.59 nM to 4.97 nM (3.1-fold).

`CC1=NN(c2ccc(C(F)(F)F)cc2)C(=O)C1=C(C)NNC(=O)c1ccc(C(=O)N2CCCC2)s1` [Example 32] and `CC1=NN(c2ccc(Cl)c(Cl)c2)C(=O)/C1=C(/C)NNC(=O)c1ccc(C(=O)N2CCC(N3CCCC3)CC2)s1` [Example 41] are within 1.5-fold of each other in EC50: 6.53 nM for the first, 4.75 nM for the second.

`CC1=NN(c2ccc(Cl)c(Cl)c2)C(=O)/C1=C(/C)NNC(=O)c1ccc(C(=O)NC(C)C)s1` [Example 37] and `CC1=NN(c2ccc(Cl)c(Cl)c2)C(=O)/C1=C(/C)NNC(=O)c1ccc(C(=O)NN(C)C)s1` [Example 40] are within 1.5-fold of each other in EC50: 5.46 nM for the first, 5.65 nM for the second.

Molecule `CC1=NN(c2ccc(Cl)c(Cl)c2)C(=O)/C1=C(/C)NNC(=O)c1ccc(C(=O)NCc2cccnc2)s1` [Example 43] has an EC50 of 4.6 nM.

test system: UT7/EPO; assay: not given; conditions: cell line characterisation, Takatoku et al.; cited from earlier work

In the case of “TPO: Thrombopoietin (Pepro Tech EC), a cytokine consisting of 332 amino acids; reference stimulus at 10 ng/mL”, the “Response of mother cell line UT7/EPO to TPO” value is listed as “no response”.

biological target: T1, human thrombopoietin receptor (c-mpl); assay: not given; conditions: cell line characterisation, Takatoku et al.; cited from earlier work

In the case of “TPO: Thrombopoietin (Pepro Tech EC), a cytokine consisting of 332 amino acids; reference stimulus at 10 ng/mL”, the “Proliferation of UT7/EPO-mpl cell line in response to TPO” value is given as “stimulated”.

— patent US8026368B2, “Hydrazide compounds and thrombopoietin receptor activators” (Nissan Chemical Industries, Ltd., priority 2005, dated 2011)
